Legend:
Assay type in all cases: in vivo
Tumor cells GL261 = assay: Anti-tumor effect in GL261 tumor-bearing mice (alone and combined with PD-1 monoclonal antibody); conditions: for Tumor inhibition rate GL261: female C57BL/6 mice, by tumor weight vs control group, compounds 150 mg/kg orally every day, PD-1 monoclonal antibody 10 mg/kg intraperitoneally every three days, combination: both
Text: (§1) Tumor cells B16F10, LLC, PAN02, H22, CT26, MFC, and GL261 (purchased from Biological Industries) in good growth status were collected, separately washed twice with 1×PBS, and a total number of the cells was counted with a cell counter, and a cell solution was separately diluted with 1×PBS to obtain a cell suspension of 1×10^7 cells/mL. The mice used in this experiment were purchased from Beijing Vital River Laboratory (Beijing, China). The above different types of tumor cells were inoculated into different types of mice to produce corresponding tumor-bearing mice, and the correspondences are as follows. Tumor cell B16F10 corresponds to female mice C57BL/6 aged 6-8 weeks; Tumor cell LLC corresponds to female mice Balb/c aged 6-8 weeks; Tumor cell PAN02 corresponds to female mice C57BL/6J aged 6-8 weeks; Tumor cell H22 corresponds to female mice C57BL/6 aged 6-8 weeks; Tumor cell CT26 corresponds to female mice Balb/c aged 6-8 weeks; Tumor cell MFC corresponds to female mice BALB/c-nu/nu aged 6-8 weeks; and Tumor cell GL261 corresponds to female mice C57BL/6 aged 6-8 weeks. […] After the experiment was completed, the mice were euthanized, tumor tissues thereof were collected, and volume and weight of the tumor tissues were tested to calculate a tumor inhibition rate. Tumor inhibition rate=(1-tumor weight of treatment group/tumor weight of control group)×100%

Tumor cells CT26 = assay: Anti-tumor effect in CT26 tumor-bearing mice (alone and combined with PD-1 monoclonal antibody); conditions: female Balb/c mice; by tumor weight vs control group; compounds 150 mg/kg orally every day; PD-1 monoclonal antibody 10 mg/kg intraperitoneally every three days; combination: both
Text: as §1

Tumor cells H22 = assay: Anti-tumor effect in H22 tumor-bearing mice (alone and combined with PD-1 monoclonal antibody); conditions: female C57BL/6 mice; by tumor weight vs control group; compounds 150 mg/kg orally every day; PD-1 monoclonal antibody 10 mg/kg intraperitoneally every three days; combination: both
Text: as §1

Tumor cells B16F10 = assay: Anti-tumor effect in B16F10 tumor-bearing mice (alone and combined with PD-1 monoclonal antibody); conditions: female C57BL/6 mice; by tumor weight vs control group; compounds 150 mg/kg orally every day; PD-1 monoclonal antibody 10 mg/kg intraperitoneally every three days; combination: both
Text: as §1

Tumor cells PAN02 = assay: Anti-tumor effect in PAN02 tumor-bearing mice (alone and combined with PD-1 monoclonal antibody); conditions: for Tumor inhibition rate PAN02: female C57BL/6J mice, by tumor weight vs control group, compounds 150 mg/kg orally every day, PD-1 monoclonal antibody 10 mg/kg intraperitoneally every three days, combination: both
Text: as §1

Tumor cells MFC = assay: Anti-tumor effect in MFC tumor-bearing mice (alone and combined with PD-1 monoclonal antibody); conditions: female BALB/c-nu/nu mice; by tumor weight vs control group; compounds 150 mg/kg orally every day; PD-1 monoclonal antibody 10 mg/kg intraperitoneally every three days; combination: both
Text: as §1

Tumor cells LLC = assay: Anti-tumor effect in LLC tumor-bearing mice (alone and combined with PD-1 monoclonal antibody); conditions: female Balb/c mice; by tumor weight vs control group; compounds 150 mg/kg orally every day; PD-1 monoclonal antibody 10 mg/kg intraperitoneally every three days; combination: both
Text: as §1

[1] = combined administration with the PD-1 monoclonal antibody (text summary of Table 1)

SMILES | Tumor inhibition rate GL261 (Tumor cells GL261) | Tumor inhibition rate CT26 (Tumor cells CT26) | Tumor inhibition rate H22 (Tumor cells H22) | Tumor inhibition rate B16F10 (Tumor cells B16F10) | Tumor inhibition rate PAN02 (Tumor cells PAN02) | Tumor inhibition rate MFC (Tumor cells MFC) | Tumor inhibition rate LLC (Tumor cells LLC) | tumor inhibition rate, GL261 cells (Tumor cells GL261; [1]) | tumor inhibition rate, PAN02 cells (Tumor cells PAN02; [1])
CN(CCO)CC1C(=O)O[C@@H]2C[C@@]3(C)CC[C@@H](O)[C@]4(CO4)[C@@H]3C[C@H]12.O=C(O)/C=C/C(=O)O (stereo partly drawn) [Compound 4] | 23% | 31% | 26% | 23% | 22% | 27% | 24% | – | –
C[C@]12CC[C@@H](O)[C@]3(CO3)[C@@H]1C[C@@H]1C(CN(CCO)CCO)C(=O)O[C@@H]1C2.O=C(O)/C=C/C(=O)O (stereo partly drawn) [Compound 5] | 19% | 52% | 31% | 24% | 19% | 44% | 26% | – | –
CN(CCCO)CC1C(=O)O[C@@H]2C[C@@]3(C)CC[C@@H](O)[C@]4(CO4)[C@@H]3C[C@H]12.O=C(O)/C=C/C(=O)O (stereo partly drawn) [Compound 6] | 29% | 41% | 39% | 31% | 31% | 52% | 29% | up to 89% | up to 89%
CN(C)CC1C(=O)O[C@@H]2C[C@@]3(C)CC[C@@H](O)[C@]4(CO4)[C@@H]3C[C@H]12.O=C(O)/C=C/C(=O)O (stereo partly drawn) [Control compound 7, reference compound] | 39% | 60% | 52% | 41% | 43% | 38% | 44% | – | –

From patent publication US20240317772A1, “SESQUITERPENE DERIVATIVE AND PHARMACEUTICAL COMPOSITION THEREOF, AND THEIR PREPARATION METHODS AND USE” (TIANJIN JIKUN MEDICAL TECHNOLOGY CO., LTD., priority 2022, published 2024)
